Test results from US10941152B2, “Pyrazole compounds as modulators of FSHR and uses thereof” (TOCOPHERX, INC., priority 2014, dated 2021).

Key:
[1] = molecular target: T1, FSHR (Homo sapiens, UniProt P23945); assay: EC50 of cyclic AMP production in CHO FSHR cells + EC20 FSH (Assay A); type: cell-based; settings: cyclic AMP production in CHO FSHR cells + EC20 FSH (0.265 pM), HTRF
T1 construct: expressed in transfected cells; host or cells: CHO (Cho-FSHR-LUC-1-1-43)
T1 sequence (P23945 18-695): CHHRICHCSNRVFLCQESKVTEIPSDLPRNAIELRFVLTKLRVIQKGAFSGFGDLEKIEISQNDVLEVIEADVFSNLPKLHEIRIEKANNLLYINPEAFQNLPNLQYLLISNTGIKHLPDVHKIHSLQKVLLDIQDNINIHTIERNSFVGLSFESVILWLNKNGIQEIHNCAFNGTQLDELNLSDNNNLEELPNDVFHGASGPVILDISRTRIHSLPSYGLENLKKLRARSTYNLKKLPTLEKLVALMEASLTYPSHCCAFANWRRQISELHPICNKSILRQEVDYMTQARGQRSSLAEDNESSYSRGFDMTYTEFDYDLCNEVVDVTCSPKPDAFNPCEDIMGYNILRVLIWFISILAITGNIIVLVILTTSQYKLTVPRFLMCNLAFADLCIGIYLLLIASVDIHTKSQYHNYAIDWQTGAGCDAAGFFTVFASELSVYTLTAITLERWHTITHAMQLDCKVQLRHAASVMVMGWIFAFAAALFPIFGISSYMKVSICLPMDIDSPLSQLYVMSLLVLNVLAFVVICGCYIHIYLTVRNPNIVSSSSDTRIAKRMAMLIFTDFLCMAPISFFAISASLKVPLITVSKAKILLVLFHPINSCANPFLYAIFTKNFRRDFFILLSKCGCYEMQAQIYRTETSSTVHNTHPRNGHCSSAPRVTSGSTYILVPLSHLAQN
Method: Example 24. EC50 of cyclic AMP production in CHO FSHR cells+EC20 FSH (Assay A)
2500 Cho-FSHR-LUC-1-1-43 cells were plated per well in 5 al of phenol red free DMEM/F12+1% FBS. Cells were plated in 384 well, solid white low volume plates (Greiner 784075) by Multidrop. Cells were assayed by adding 100 al of 2×EC20 FSH/IBMX in DMEM/F12+0.1% BSA) by Multidrop to 2 al of test compound stamped in 384 well plates (compounds are diluted 1:50). The final FSH concentration was 0.265 pM, and the final IBMX concentration was 200 μM. The compound plate map was as follows: Column 1: 2 μl of DMSO; Column 2: 2 μl of DMSO; Columns 3-12 and 13-24: 2 μl of test compound, diluted 1:4 in 100% DMSO, or 2 μl of FSH, diluted 1:4 in DMEM/F12+0.1% BSA. The starting concentration for FSH was 50 nM (final concentration was 0.5 nM). Furthermore, Column 23 contained 2 μl of EC100 FSH reference (100×) (diluted in DMEM/F12+0.1% BSA) at a final concentration of 0.5 nM, and Column 24 contained 2 μl of 1 mM AS707664/2 reference compound 2. 5 μl of compound+EC20 FSH mixture were transferred to cell plates (1:2 dilution into 5 μl of cell media) The plates were incubated at 37° C. for 1 h. 10 μl of mixed HTRF (CisBio #62AM4PEC) reagents were added per well and incubated at room temperature for 1 h. The plates were read on Envision using the cAMP HTRF—low volume 384 well protocol. The readout was the calculated fluorescence ratio (665 nm/620 nm). Values given in percent (%) indicate the percental effect (response) at a certain concentration of agonist relative to the maximum response of the FSH standard.

[2] = molecular target: T2, follicle-stimulating hormone (FSH) receptor (Rattus norvegicus, UniProt P20395); assay: Rat granulosa EC50 FSH (Assay B); type: cell-based
T2 construct: endogenous in cells; host or cells: rat granulosa cells
T2 sequence (P20395 18-692): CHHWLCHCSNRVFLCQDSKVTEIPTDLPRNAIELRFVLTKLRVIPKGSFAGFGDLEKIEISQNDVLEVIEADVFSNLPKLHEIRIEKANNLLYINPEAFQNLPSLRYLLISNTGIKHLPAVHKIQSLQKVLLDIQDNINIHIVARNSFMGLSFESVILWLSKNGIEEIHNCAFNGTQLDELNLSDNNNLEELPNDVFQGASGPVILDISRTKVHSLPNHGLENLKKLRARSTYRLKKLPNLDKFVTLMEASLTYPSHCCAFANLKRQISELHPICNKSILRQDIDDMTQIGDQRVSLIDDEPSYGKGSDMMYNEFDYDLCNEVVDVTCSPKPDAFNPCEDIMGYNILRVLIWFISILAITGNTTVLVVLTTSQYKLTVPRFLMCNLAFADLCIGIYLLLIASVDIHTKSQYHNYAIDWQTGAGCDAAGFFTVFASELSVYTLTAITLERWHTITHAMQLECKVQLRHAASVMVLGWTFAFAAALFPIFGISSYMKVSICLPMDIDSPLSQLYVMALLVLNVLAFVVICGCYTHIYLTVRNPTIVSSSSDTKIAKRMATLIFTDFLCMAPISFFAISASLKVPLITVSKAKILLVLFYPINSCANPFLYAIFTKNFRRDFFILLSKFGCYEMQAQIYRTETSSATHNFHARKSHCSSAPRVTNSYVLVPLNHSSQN
Method: Example 25. Rat granulosa EC50 FSH (Assay B)
The assay was performed pursuant to the teaching of Yanofsky et al. (2006) Allosteric activation of the follicle-stimulating hormone (FSH) receptor by selective, nonpeptide agonists (JBC 281(19): 13226-13233, which is incorporated by reference in the disclosure of the invention).

For `COc1cc2c(cc1-c1ccccn1)-c1c(c(C(=O)N3CCC(O)CC3(C)C)nn1-c1cc(Cl)cc(Cl)c1)CO2` (stereo not drawn) [Compound 102, (1-(3,5-dichlorophenyl)-7-methoxy-8-(pyridin-2-yl)-1,4-dihydrochromeno[4,3-c]pyrazol-3-yl)(4-hydroxy-2,2-dimethylpiperidin-1-yl)methanone], which EC50 [1] is on record?
The EC50 was less than 0.01 µM.

What about the EC50 [2] of the same compound?
Its EC50 is 0.01 to 0.1 µM.

With `COc1cc(OC)cc(-n2nc(C(=O)N(C)C(C)(C)C)c3c2-c2cc(-c4cc[nH]c4)c(OC)cc2OC3)c1` [Compound 38] as the compound, how does the EC50 [1] read?
Its EC50 is 0.01 to 0.1 µM.

And the EC50 [2]?
The EC50 was 0.101 to 0.5 µM.

For `COc1cc2c(cc1-c1cnc(N)c(C)c1)-c1c(c(C(=O)N(C)C(C)(C)C)nn1-c1cc(Cl)cc(Cl)c1)CO2` [Compound 17, 8-(6-amino-5-methylpyridin-3-yl)-N-tert-butyl-1-(3,5-dichlorophenyl)-7-methoxy-N-methyl-1,4-dihydrochromeno[4,3-c]pyrazole-3-carboxamide], which EC50 [1] is on record?
Its EC50 is less than 0.01 µM.

What about the EC50 [2] of the same compound?
Its EC50 is 0.101 to 0.5 µM.

What does the source list for `COc1cc2c(cc1-c1cncc(CO)c1)-c1c(c(C(=O)N3CCOCC3(C)C)nn1-c1cc(Cl)cc(Cl)c1)CO2` [Compound 24, (1-(3,5-dichlorophenyl)-8-(5-(hydroxymethyl)pyridin-3-yl)-7-methoxy-1,4-dihydrochromeno[4,3-c]pyrazol-3-yl)(3,3-dimethylmorpholino)methanone]?
EC50 [1]: < 0.01 µM; EC50 [2]: 0.01 to 0.1 µM

Which EC50 [1] does the source give for `COc1cc2c(cc1-c1cccnc1C#N)-c1c(c(C(=O)N(C)C(C)(C)C)nn1-c1cc(Cl)cc(Cl)c1)CO2` [Compound 14, N-tert-butyl-8-(2-cyanopyridin-3-yl)-1-(3,5-dichlorophenyl)-7-methoxy-N-methyl-1,4-dihydrochromeno[4,3-c]pyrazole-3-carboxamide] here?
Its EC50 is less than 0.01 µM.

And the EC50 [2]?
Its EC50 is 0.01 to 0.1 µM.

For `COc1cc2c(cc1-c1cncc(NC(N)=O)c1)-c1c(c(C(=O)N(C)C(C)(C)C)nn1-c1cc(Cl)cc(Cl)c1)CO2` [Compound 183, N-tert-butyl-1-(3,5-dichlorophenyl)-7-methoxy-N-methyl-8-(5-ureidopyridin-3-yl)-1,4-dihydrochromeno[4,3-c]pyrazole-3-carboxamide], which EC50 [1] is on record?
Its EC50 is less than 0.01 µM.

What about the EC50 [2] of the same compound?
Its EC50 is 0.01 to 0.1 µM.

Which results are given for `COCC1(CC(C)C)CCCN1C(=O)c1nn(-c2ccsc2)c2c1COc1cc(OC)c(-c3ccn(C)n3)cc1-2` (stereo not drawn) [Compound 127, (2-isobutyl-2-(methoxymethyl)pyrrolidin-1-yl)(7-methoxy-8-(1-methyl-1H-pyrazol-3-yl)-1-(thiophen-3-yl)-1,4-dihydrochromeno[4,3-c]pyrazole-3-yl)methanone]?
EC50 [1]: 0.01 to 0.1 µM; EC50 [2]: 0.101 to 0.5 µM

Which EC50 [1] does the source give for `COc1cc2c(cc1-c1ccnc(C#N)c1)-c1c(c(C(=O)N(C)C(C)(C)C)nn1-c1cc(Cl)cc(Cl)c1)CO2` [Compound 21, N-tert-butyl-8-(2-cyanopyridin-4-yl)-1-(3,5-dichlorophenyl)-7-methoxy-N-methyl-1,4-dihydrochromeno[4,3-c]pyrazole-3-carboxamide] here?
Its EC50 is less than 0.01 µM.

What about the EC50 [2] of the same compound?
The EC50 was 0.01 to 0.1 µM.

With `COc1cc2c(cc1-c1cccnc1Cl)-c1c(c(C(=O)N(C)C(C)(C)C)nn1-c1ccsc1)CO2` [Compound 60, N-tert-butyl-8-(2-chloropyridin-3-yl)-7-methoxy-N-methyl-1-(thiophen-3-yl)-1,4-dihydrochromeno[4,3-c]pyrazole-3-carboxamide] as the compound, how does the EC50 [1] read?
The EC50 was less than 0.01 µM.

What about the EC50 [2] of the same compound?
Its EC50 is 0.101 to 0.5 µM.

For `COc1cc2c(cc1-c1cnn(CC(N)=O)c1)-c1c(c(C(=O)N3CCOCC3(C)C)nn1-c1cc(F)cc(F)c1)CO2` [Compound 99, 2-(4-(1-(3,5-difluorophenyl)-3-(3,3-dimethylmorpholine-4-carbonyl)-7-methoxy-1,4-dihydrochromeno[4,3-c]pyrazol-8-yl)-1H-pyrazol-1-yl)acetamide], which EC50 [1] is on record?
Its EC50 is less than 0.01 µM.

And the EC50 [2]?
Its EC50 is 0.01 to 0.1 µM.

For `COc1cc2c(cc1-c1cc(C(N)=O)ncn1)-c1c(c(C(=O)N(C)C(C)(C)C)nn1-c1cc(Cl)cc(Cl)c1)CO2` [Compound 114, N-tert-butyl-8-(6-carbamoylpyrimidin-4-yl)-1-(3,5-dichlorophenyl)-7-methoxy-N-methyl-1,4-dihydrochromeno[4,3-c]pyrazole-3-carboxamide], which EC50 [1] is on record?
Its EC50 is 0.01 to 0.1 µM.

And the EC50 [2]?
The EC50 was 0.101 to 0.5 µM.

For `COC(=O)c1cc(-c2cc3c(cc2OC)OCc2c(C(=O)N(C)C(C)(C)C)nn(-c4cc(F)cc(F)c4)c2-3)cnc1N` [Compound 65, methyl 2-amino-5-(3-(tert-butyl(methyl)carbamoyl)-1-(3,5-difluorophenyl)-7-methoxy-1,4-dihydrochromeno[4,3-c]pyrazol-8-yl)nicotinate], which EC50 [1] is on record?
Its EC50 is less than 0.01 µM.

What about the EC50 [2] of the same compound?
Its EC50 is 0.01 to 0.1 µM.

How did the EC50 [1] turn out when `COc1cc(F)cc(-n2nc(C(=O)N(C)C(C)(C)C)c3c2-c2cc(-c4ccn(C)n4)c(OC)cc2OC3)c1` [Compound 52, N-tert-butyl-1-(3-fluoro-5-methoxyphenyl)-7-methoxy-N-methyl-8-(1-methyl-1H-pyrazol-3-yl)-1,4-dihydrochromeno[4,3-c]pyrazole-3-carboxamide] was run?
The EC50 was 0.01 to 0.1 µM.

And the EC50 [2]?
Its EC50 is 0.101 to 0.5 µM.

Which EC50 [1] does the source give for `COC(=O)[C@H]1C[C@@H]1c1cc2c(cc1OC)OCc1c(C(=O)N(C)C(C)(C)C)nn(-c3cc(F)cc(F)c3)c1-2` (racemic) [Compound 206] here?
Its EC50 is less than 0.01 µM.

And the EC50 [2]?
The EC50 was 0.101 to 0.5 µM.

With `COc1cc2c(cc1-c1ccc(N)nc1)-c1c(c(C(=O)N(C)C(C)(C)C)nn1-c1cc(Cl)cc(Cl)c1)CO2` [Compound 16, 8-(6-aminopyridin-3-yl)-N-tert-butyl-1-(3,5-dichlorophenyl)-7-methoxy-N-methyl-1,4-dihydrochromeno[4,3-c]pyrazole-3-carboxamide] as the compound, how does the EC50 [1] read?
Its EC50 is less than 0.01 µM.

And the EC50 [2]?
Its EC50 is 0.101 to 0.5 µM.

How did the EC50 [1] turn out when `COc1cc2c(cc1-c1cccc(F)c1C#N)-c1c(c(C(=O)N(C)C(C)(C)C)nn1-c1cc(Cl)cc(Cl)c1)CO2` [Compound 25, N-tert-butyl-8-(2-cyano-3-fluorophenyl)-1-(3,5-dichlorophenyl)-7-methoxy-N-methyl-1,4-dihydrochromeno[4,3-c]pyrazole-3-carboxamide] was run?
The EC50 was less than 0.01 µM.

What about the EC50 [2] of the same compound?
The EC50 was 0.01 to 0.1 µM.

`COc1cc2c(cc1-c1cc(C#N)c[n+]([O-])c1)-c1c(c(C(=O)N3CCOCC3(C)C)nn1-c1cc(Cl)cc(Cl)c1)CO2` [Compound 177] was tested. Which EC50 [1] did it give?
Its EC50 is less than 0.01 µM.

What about the EC50 [2] of the same compound?
Its EC50 is 0.01 to 0.1 µM.

What does the source list for `COc1cc2c(cc1-c1cc(Cl)cc(C(N)=O)c1)-c1c(c(C(=O)N(C)C(C)(C)C)nn1-c1cc(F)cc(F)c1)CO2` [Compound 165]?
EC50 [1]: < 0.01 µM; EC50 [2]: 0.01 to 0.1 µM
